In ChEMBL document CHEMBL1144239, “Identification of novel protein kinase CK1 delta (CK1delta) inhibitors through structure-based virtual screening” (Bioorg Med Chem Lett, 2008):

What was measured:
[1] = biological target: Casein kinase I isoform gamma-1 (Homo sapiens, UniProt Q9HCP0); test: Inhibition of CK1gamma1
[2] = Cytotoxicity against human ovarian carcinoma cells after 48 hrs; format: functional, cell-based; details: Ovarian carcinoma cell
[3] = Cytotoxicity against cisplatin-resistant human C13 cells after 48 hrs; format: functional, cell-based; details: C13, 48 h
[4] = biological target: Casein kinase I isoform delta (Homo sapiens, UniProt P48730); test: Inhibition of CK1delta
[5] = biological target: Casein kinase I isoform alpha (Homo sapiens, UniProt P48729); test: Inhibition of CK1alpha
[6] = Inhibition of CK1
[7] = biological target: Tyrosine-protein kinase Lyn (Homo sapiens, UniProt P07948); test: Inhibition of Lyn
[8] = Inhibition of CK2
[9] = biological target: Dual specificity tyrosine-phosphorylation-regulated kinase 1A (Homo sapiens, UniProt Q13627); test: Inhibition of DYRK1a
[10] = biological target: Tyrosine-protein kinase Fgr (Homo sapiens, UniProt P09769); test: Inhibition of Fgr
[11] = biological target: Serine/threonine-protein kinase pim-1 (Homo sapiens, UniProt P11309); test: Inhibition of PIM1
[12] = biological target: ALK tyrosine kinase receptor (Homo sapiens, UniProt Q9UM73); test: Inhibition of GST tagged ALK
[13] = biological target: Tyrosine-protein kinase CSK (Homo sapiens, UniProt P41240); test: Inhibition of CSK
[14] = biological target: Homeodomain-interacting protein kinase 2 (Homo sapiens, UniProt Q9H2X6); test: Inhibition of HIPK2
[15] = biological target: Tyrosine-protein kinase SYK (Homo sapiens, UniProt P43405); test: Inhibition of Syk
[16] = Inhibition of PKA

Chain of Casein kinase I isoform gamma-1 (Q9HCP0 whole entry, canonical isoform): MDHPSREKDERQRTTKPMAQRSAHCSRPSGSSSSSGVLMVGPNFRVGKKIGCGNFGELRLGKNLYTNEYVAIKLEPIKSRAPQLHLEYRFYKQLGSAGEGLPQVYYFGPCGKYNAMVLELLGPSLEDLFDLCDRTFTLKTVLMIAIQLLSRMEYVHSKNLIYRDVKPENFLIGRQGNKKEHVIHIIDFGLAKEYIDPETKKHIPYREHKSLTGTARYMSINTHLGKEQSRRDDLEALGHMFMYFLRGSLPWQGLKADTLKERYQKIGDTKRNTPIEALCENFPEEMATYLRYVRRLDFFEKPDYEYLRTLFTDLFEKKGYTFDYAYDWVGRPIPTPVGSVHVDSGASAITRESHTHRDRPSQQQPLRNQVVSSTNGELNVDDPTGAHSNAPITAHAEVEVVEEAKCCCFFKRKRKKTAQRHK
Chain of Casein kinase I isoform delta (P48730 whole entry, canonical isoform): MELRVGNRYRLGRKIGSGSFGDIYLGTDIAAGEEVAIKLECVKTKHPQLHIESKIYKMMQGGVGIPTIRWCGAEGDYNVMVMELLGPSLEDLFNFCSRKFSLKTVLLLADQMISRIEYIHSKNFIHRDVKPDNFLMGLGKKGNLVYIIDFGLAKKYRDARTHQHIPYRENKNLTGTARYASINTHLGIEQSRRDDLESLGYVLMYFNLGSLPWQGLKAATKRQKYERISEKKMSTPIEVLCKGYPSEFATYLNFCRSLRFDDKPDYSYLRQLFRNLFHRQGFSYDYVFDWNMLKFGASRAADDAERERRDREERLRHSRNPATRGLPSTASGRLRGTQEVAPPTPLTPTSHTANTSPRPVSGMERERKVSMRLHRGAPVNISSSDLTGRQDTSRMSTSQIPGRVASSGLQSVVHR
Chain of Casein kinase I isoform alpha (P48729 whole entry, canonical isoform): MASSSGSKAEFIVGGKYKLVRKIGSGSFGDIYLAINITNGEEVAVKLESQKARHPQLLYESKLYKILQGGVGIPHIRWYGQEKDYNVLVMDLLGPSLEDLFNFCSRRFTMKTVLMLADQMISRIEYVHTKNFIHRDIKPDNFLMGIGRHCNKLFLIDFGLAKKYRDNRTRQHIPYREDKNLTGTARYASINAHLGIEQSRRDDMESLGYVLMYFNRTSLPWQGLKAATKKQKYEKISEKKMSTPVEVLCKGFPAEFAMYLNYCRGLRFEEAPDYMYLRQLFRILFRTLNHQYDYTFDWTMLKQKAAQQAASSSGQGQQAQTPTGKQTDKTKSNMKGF
Chain of Tyrosine-protein kinase CSK (P41240 whole entry): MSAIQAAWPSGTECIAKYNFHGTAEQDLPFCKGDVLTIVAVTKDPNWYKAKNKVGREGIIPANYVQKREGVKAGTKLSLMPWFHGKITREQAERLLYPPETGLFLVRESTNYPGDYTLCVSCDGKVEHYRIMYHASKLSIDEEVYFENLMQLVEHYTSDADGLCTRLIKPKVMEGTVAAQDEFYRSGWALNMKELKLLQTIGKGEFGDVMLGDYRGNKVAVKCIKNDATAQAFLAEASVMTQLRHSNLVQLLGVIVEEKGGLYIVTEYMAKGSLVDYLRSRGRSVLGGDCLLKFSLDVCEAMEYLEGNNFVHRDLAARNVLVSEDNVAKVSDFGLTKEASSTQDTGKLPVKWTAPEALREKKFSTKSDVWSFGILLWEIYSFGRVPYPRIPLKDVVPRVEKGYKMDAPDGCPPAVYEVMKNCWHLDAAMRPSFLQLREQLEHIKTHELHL
Chain of Homeodomain-interacting protein kinase 2 (Q9H2X6 whole entry): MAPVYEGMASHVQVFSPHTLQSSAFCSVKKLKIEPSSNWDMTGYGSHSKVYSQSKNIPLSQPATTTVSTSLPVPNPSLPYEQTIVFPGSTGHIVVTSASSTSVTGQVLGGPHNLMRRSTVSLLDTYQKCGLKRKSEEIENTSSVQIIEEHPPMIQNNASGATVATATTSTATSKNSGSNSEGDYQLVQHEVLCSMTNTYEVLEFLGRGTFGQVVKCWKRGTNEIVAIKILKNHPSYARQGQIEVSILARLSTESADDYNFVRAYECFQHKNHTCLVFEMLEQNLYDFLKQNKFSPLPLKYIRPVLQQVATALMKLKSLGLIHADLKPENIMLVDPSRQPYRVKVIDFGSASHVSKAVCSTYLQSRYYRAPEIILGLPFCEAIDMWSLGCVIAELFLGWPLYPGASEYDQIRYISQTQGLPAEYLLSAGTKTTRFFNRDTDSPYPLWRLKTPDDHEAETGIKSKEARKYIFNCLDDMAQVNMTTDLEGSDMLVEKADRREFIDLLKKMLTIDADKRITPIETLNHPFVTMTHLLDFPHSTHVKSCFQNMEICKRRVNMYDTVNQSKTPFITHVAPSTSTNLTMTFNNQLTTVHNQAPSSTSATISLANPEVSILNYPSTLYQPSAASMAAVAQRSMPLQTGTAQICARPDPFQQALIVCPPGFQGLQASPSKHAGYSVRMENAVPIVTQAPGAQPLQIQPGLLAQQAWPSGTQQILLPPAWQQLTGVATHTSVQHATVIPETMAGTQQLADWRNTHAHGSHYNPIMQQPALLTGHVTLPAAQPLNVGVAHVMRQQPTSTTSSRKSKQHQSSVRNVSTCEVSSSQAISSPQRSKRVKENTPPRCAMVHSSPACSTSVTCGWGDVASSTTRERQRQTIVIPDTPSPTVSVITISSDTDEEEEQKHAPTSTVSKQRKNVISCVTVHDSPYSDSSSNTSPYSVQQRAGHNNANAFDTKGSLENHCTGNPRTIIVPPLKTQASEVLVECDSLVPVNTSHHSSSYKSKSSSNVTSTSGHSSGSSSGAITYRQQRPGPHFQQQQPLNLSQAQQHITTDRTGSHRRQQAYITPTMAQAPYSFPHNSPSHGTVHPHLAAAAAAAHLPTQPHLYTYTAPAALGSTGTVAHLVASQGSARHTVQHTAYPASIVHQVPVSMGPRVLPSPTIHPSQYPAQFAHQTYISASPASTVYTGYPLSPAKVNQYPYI
Chain of Serine/threonine-protein kinase pim-1 (P11309 whole entry): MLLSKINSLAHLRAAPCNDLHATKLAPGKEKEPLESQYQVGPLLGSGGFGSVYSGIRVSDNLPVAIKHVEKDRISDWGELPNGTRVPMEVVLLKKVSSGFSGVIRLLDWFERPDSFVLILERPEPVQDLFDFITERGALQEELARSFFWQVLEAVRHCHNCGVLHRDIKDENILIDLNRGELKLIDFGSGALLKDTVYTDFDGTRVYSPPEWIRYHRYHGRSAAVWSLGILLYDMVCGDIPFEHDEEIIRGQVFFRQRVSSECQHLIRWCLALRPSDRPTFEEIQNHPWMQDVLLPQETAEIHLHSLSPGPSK
Chain of Tyrosine-protein kinase Lyn (P07948 whole entry): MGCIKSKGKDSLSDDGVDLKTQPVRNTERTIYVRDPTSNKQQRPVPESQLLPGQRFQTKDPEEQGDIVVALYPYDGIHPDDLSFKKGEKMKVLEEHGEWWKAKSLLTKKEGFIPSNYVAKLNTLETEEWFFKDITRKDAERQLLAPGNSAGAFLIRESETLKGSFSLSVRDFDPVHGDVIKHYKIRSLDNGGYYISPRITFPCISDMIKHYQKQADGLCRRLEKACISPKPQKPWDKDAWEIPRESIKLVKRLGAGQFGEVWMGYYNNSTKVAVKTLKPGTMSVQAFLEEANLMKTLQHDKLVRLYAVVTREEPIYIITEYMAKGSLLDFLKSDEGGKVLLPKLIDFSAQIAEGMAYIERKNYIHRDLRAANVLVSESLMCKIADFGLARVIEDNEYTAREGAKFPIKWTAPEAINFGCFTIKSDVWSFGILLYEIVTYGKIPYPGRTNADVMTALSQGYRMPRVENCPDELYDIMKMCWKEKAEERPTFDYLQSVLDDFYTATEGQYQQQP
Chain of Tyrosine-protein kinase Fgr (P09769 whole entry): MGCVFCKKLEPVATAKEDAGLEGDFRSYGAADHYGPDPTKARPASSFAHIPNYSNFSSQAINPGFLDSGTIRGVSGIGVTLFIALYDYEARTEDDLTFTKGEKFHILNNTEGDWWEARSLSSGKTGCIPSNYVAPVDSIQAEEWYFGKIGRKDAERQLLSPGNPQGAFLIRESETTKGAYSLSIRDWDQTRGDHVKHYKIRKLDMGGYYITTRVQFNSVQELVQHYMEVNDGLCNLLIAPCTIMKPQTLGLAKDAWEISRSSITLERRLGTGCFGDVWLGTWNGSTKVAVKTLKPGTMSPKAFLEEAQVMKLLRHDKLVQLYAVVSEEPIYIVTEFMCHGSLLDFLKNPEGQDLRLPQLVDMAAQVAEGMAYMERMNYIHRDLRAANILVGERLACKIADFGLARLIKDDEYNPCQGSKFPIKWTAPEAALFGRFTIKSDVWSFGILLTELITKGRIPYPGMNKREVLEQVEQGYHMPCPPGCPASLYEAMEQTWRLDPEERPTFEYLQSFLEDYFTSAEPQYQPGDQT

Structure (SMILES)	IC50 [1] [µM]	IC50 [2] [µM]	IC50 [3] [µM]	IC50 [4] [µM]	IC50 [5] [µM]	IC50 [6] [µM]	further results
Nc1ccc(O)c2c1C(=O)c1ccccc1C2=O	26.2	122	8	0.66	4	–	–
NCCNS(=O)(=O)c1ccc(Cl)c2ccncc12	–	–	–	–	–	6	–
O=C1c2ccccc2C(=O)c2c(O)ccc(O)c21 [QUINIZARIN]	> 40	–	–	> 40	> 40	–	–
COc1cc(OC)c(C=C2C(=O)Nc3ccccc32)c(OC)c1 [IC261]	> 40	–	–	2.57	1.24	1	–
Nc1ccc(N)c2c1C(=O)c1ccccc1C2=O	34	14.4	87.9	0.33	4	–	IC50 [7]: > 40 µM; IC50 [8]: 18 µM; IC50 [9]: 3.6 µM; IC50 [10]: 24 µM; IC50 [11]: 24.7 µM; IC50 [12]: > 40 µM; IC50 [13]: > 40 µM; IC50 [14]: 3.3 µM; IC50 [15]: > 40 µM; IC50 [16]: > 40 µM
NC(=O)c1ccc(-c2nc(-c3ccc4c(c3)OCCO4)c(-c3ccccn3)[nH]2)cc1	–	–	–	–	–	0.3	–
